Series [1] deals with T1, MDDEF (mevalonate diphosphate decarboxylase from Enterococcus faecalis) (Enterococcus faecalis, UniProt Q9FD68, K187A).
T1 construct: gene mvaD
The series can be described thus: biochemical.

Series [2] concerns the target T2, MDDEF (mevalonate diphosphate decarboxylase from Enterococcus faecalis) (Enterococcus faecalis, UniProt Q9FD68).
T2 construct: gene mvaD; full-length, recombinant in E. coli BL21(DE3); N-terminal His tag removed by TEV protease (told for K187A, wild type purified similarly); residues 1-326 modelled
T2 sequence (Q9FD68 1-331): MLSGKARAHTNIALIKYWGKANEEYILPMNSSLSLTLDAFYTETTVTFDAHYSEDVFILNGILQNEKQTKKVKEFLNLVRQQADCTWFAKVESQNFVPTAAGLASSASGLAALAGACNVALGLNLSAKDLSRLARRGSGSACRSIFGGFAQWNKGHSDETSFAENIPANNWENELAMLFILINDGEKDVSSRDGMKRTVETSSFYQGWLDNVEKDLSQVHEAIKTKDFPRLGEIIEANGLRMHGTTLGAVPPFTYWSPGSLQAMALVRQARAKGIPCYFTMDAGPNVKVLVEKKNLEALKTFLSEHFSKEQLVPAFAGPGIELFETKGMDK
The series can be described thus: X-ray crystal structure (soaked). Format: binding. The conditions noted are these: 1.7 Å; binary complex; pH 4.6.

Substrate in series [3]: C[C@@](O)(CCOP(=O)(O)OP(=O)(O)O)CC(=O)O
The series can be described thus: purified protein. The conditions noted are these: cobalt substituting for magnesium, co-substrate ATP, 100 mM HEPES pH 7.0, 100 mM KCl, 30 °C (standard assay).

Substrate in series [4]: Nc1ncnc2c1ncn2[C@@H]1O[C@H](COP(=O)(O)OP(=O)(O)OP(=O)(O)O)[C@@H](O)[C@H]1O
Nature of the series: purified protein. The conditions noted are these: cobalt substituting for magnesium, co-substrate MVAPP, 100 mM HEPES pH 7.0, 100 mM KCl, 30 °C (standard assay).

A word on the Kd: it is the concentration at which binding is half-saturated. A higher Kd goes with weaker binding. In series [1], `Nc1ncnc2c1ncn2[C@@H]1O[C@H](CO[P@](=O)(O)O[P@](=O)(O)O[P@@](=O)(O)S)[C@@H](O)[C@H]1O` [ATPγS] registered a Kd of 182 ± 36 µM.
On to `C[C@@](O)(CCOP(=O)(O)OP(=O)(O)O)CC(=O)O` [MVAPP, mevalonate-5-diphosphate], for which the “X-ray crystal structure (soaked)” value in series [2] is “MDDEF-MVAPP: 6E2T”.

B1: MDDEF (mevalonate diphosphate decarboxylase from Enterococcus faecalis) (Enterococcus faecalis) (protein)
chain: T2 sequence (Q9FD68 1-331)
For orientation: Km means the substrate concentration at which the rate is half of its maximum. As to B1, the Km in the series “purified protein [3]” came out at 39.3 ± 4.0 µM; in the series “purified protein [4]” it was 188 ± 13 µM.

Source of the values: paper PMC7414129, “Visualizing the enzyme mechanism of mevalonate diphosphate decarboxylase” (Nature Communications, 2020).
